Columns and labels:
[1] = Cytotoxicity against African green monkey Vero cells assessed as reduction in cell viability; assay type: toxicity, cell-based; conditions: chlorocebus sabaeus
[2] = Cytotoxicity against human PBMC cells assessed as reduction in cell viability; assay type: toxicity, cell-based; conditions: pbmc
CCRF-CEM = experiment: Cytotoxicity against human CEM cells assessed as reduction in cell viability; assay type: toxicity, cell-based; conditions: ccrf-cem
Human coronavirus OC43 = experiment: Antiviral activity against Human coronavirus OC43 infected in Vero cells assessed as reduction in viral yield preincubated with virus for 1 hr followed by washout and compound treatment and measured after 3 days by qRT-PCR analysis; assay type: functional, organism-based; conditions: Betacoronavirus 1, Vero; for EC90: 72 h, time 3 day
SARS-CoV-2 [3] = experiment: Antiviral activity against SARS-CoV-2 infected in Vero cells assessed as reduction in viral yield measured after 48 hrs by qRT-PCR analysis; assay type: functional, organism-based; conditions: Severe acute respiratory syndrome coronavirus 2, Vero; for EC50: 48 h; for EC90: time 48 hrs
Huh-7 = experiment: Cytotoxicity against human Huh-7 cells assessed as reduction in cell viability; assay type: toxicity, cell-based; conditions: huh-7
[4] = Cytotoxicity against human Caco-2 cells assessed as reduction in cell viability; assay type: toxicity, cell-based; conditions: Caco-2 cells
SARS-CoV-2 [5] = experiment: Antiviral activity against SARS-CoV-2 infected in human Calu-3 cells assessed as reduction in viral yield measured after 72 hrs by qRT-PCR analysis; assay type: functional, organism-based, Severe acute respiratory syndrome coronavirus 2; conditions: Severe acute respiratory syndrome coronavirus 2, Calu-3; time 72 hrs
SARS-CoV-2 [6] = experiment: Antiviral activity against SARS-CoV-2 infected in human Caco-2 cells assessed as reduction in viral yield measured after 72 hrs by qRT-PCR analysis; assay type: functional, organism-based, Severe acute respiratory syndrome coronavirus 2
SARS-CoV-2 [7] = experiment: Antiviral activity against SARS-CoV-2 hCoV-19/USA-WA1/2020 Washington strain infected in Normal human bronchial/tracheal epithelial cells cultured in air-liquid interface media assessed as reduction in viral yield pretreated with compound followed by viral infection for 4 hrs post washout and measured 3 days after virus removal by qRT-PCR analysis; assay type: functional, organism-based; conditions: Severe acute respiratory syndrome coronavirus 2, hCoV-19/USA-WA1/2020 Washington, Epithelial cell
SARS-CoV-2 [8] = experiment: Antiviral activity against wild type SARS-CoV-2 WA1 infected in HEK293T cells measured after 48 hrs by Nano-Glo luciferase assay; assay type: functional, organism-based; conditions: Severe acute respiratory syndrome coronavirus 2, WA1, HEK-293T
SARS-CoV-2 [9] = experiment: Antiviral activity against SARS-CoV-2 hCoV-19/USA/GA-EHC-2811C/2021 (Omicron B.1.1.529) infected in human Calu-3 cells assessed as reduction in viral yield measured after 48 hrs by qRT-PCR analysis; assay type: functional, organism-based; conditions: Severe acute respiratory syndrome coronavirus 2, hCoV-19/USA/GA-EHC-2811C/2021 (Omicron B.1.1.529)
[10] = Cytotoxicity against human Calu-3 cells assessed as reduction in cell viability; assay type: toxicity, cell-based; conditions: Calu-3 cells
SARS-CoV-2 [11] = experiment: Antiviral activity against wild type SARS-CoV-2 Omicron BA.1 infected in HEK293T cells measured after 48 hrs by Nano-Glo luciferase assay; assay type: functional, organism-based; conditions: Severe acute respiratory syndrome coronavirus 2, Omicron BA.1, HEK-293T

Structure (SMILES): CC(C)C[C@H](NC(=O)[C@H](Cc1cccc2ccccc12)NC(=O)OCc1ccccc1)C(=O)N[C@H](C=O)Cn1ccnn1
- CC50 ([1]; vero): 35.7 µM
- CC50 [2]: 35.7 µM
- CC50 (CCRF-CEM): 25.3 µM
- EC50 (Human coronavirus OC43): 53.5 µM
- EC90 (Human coronavirus OC43): 99 µM
- EC50 (SARS-CoV-2 [3]): 4.7 µM
- EC90 (SARS-CoV-2 [3]): 9.5 µM
- CC50 (Huh-7): 25.3 µM

Structure (SMILES): CCC(CC)COC(=O)[C@H](C)N[P@](=O)(OC[C@H]1O[C@@](C#N)(c2ccc3c(N)ncnn23)[C@H](O)[C@@H]1O)Oc1ccccc1
- CC50 [4]: > 100 µM
- CC50 ([1]; Vero cells): > 100 µM
- EC90 (SARS-CoV-2 [5]): 0.7 µM
- CC50 [2]: 4.9 µM
- EC50 (SARS-CoV-2 [6]; Severe acute respiratory syndrome coronavirus 2, Caco-2, 72 h): 0.03 µM
- EC90 (SARS-CoV-2 [6]; Severe acute respiratory syndrome coronavirus 2, Caco-2, time 72 hrs): 0.2 µM
- CC50 (CCRF-CEM): 11.2 µM
- EC50 (SARS-CoV-2 [7]): 0.5 µM
- EC90 (SARS-CoV-2 [7]): 0.9 µM
- EC50 (Human coronavirus OC43): 0.01 µM
- EC90 (Human coronavirus OC43): 0.03 µM
- EC50 (SARS-CoV-2 [8]): 0.01 µM
- EC50 (SARS-CoV-2 [9]; Calu-3, 48 h): 0.2 µM
- EC90 (SARS-CoV-2 [9]; Calu-3, time 48 hrs): 0.6 µM
- CC50 [10]: > 100 µM
- EC50 (SARS-CoV-2 [11]): 0.014 µM
- EC50 (SARS-CoV-2 [3]): 3.2 µM
- EC90 (SARS-CoV-2 [3]): 4.7 µM
- CC50 (Huh-7): 1.4 µM

Structure (SMILES): Cc1ccsc1C(=O)N[C@@H](Cc1cccc2ccccc12)C(=O)N[C@@H](CC(C)C)C(=O)N[C@H](C=O)C[C@@H]1CCCNC1=O
- CC50 ([1]; vero): 53.1 µM
- CC50 [2]: 51.5 µM
- CC50 (CCRF-CEM): 16.3 µM
- EC50 (Human coronavirus OC43): 0.3 µM
- EC90 (Human coronavirus OC43): 0.8 µM
- EC50 (SARS-CoV-2 [3]): 2.2 µM
- EC90 (SARS-CoV-2 [3]): 4.8 µM
- CC50 (Huh-7): 35.1 µM

Structure (SMILES): CC(C)C[C@H](NC(=O)[C@H](Cc1cccc2ccccc12)NC(=O)c1cc(C(F)(F)F)on1)C(=O)N[C@H](C=O)C[C@@H]1CCCNC1=O
- CC50 ([1]; vero): 49.9 µM
- CC50 [2]: 49.9 µM
- CC50 (CCRF-CEM): 20.3 µM
- EC50 (Human coronavirus OC43): 0.7 µM
- EC90 (Human coronavirus OC43): 1 µM
- EC50 (SARS-CoV-2 [3]): 6.1 µM
- EC90 (SARS-CoV-2 [3]): 9.9 µM
- CC50 (Huh-7): 42.5 µM

Structure (SMILES): Cc1cc(C(=O)N[C@@H](Cc2cccc3ccccc23)C(=O)N[C@@H](CC(C)C)C(=O)N[C@@H](C[C@@H]2CCCNC2=O)C(O)C(=O)NC2CC2)no1 (some centres not stated)
- CC50 ([1]; vero): > 100 µM
- CC50 [2]: > 100 µM
- CC50 (CCRF-CEM): > 100 µM
- EC50 (Human coronavirus OC43): 36.7 µM
- EC90 (Human coronavirus OC43): 87.4 µM
- EC50 (SARS-CoV-2 [3]): > 10 µM
- EC90 (SARS-CoV-2 [3]): > 10 µM
- CC50 (Huh-7): > 100 µM

Structure (SMILES): CC(C)C[C@H](NC(=O)[C@H](Cc1ccc(O)cc1)NC(=O)OCc1ccccc1)C(=O)N[C@H](C=O)C[C@@H]1CCCNC1=O
- CC50 ([1]; vero): > 100 µM
- CC50 [2]: > 100 µM
- CC50 (CCRF-CEM): > 100 µM
- EC50 (Human coronavirus OC43): 8.5 µM
- EC90 (Human coronavirus OC43): 47.6 µM
- EC50 (SARS-CoV-2 [3]): > 10 µM
- EC90 (SARS-CoV-2 [3]): > 10 µM
- CC50 (Huh-7): > 100 µM

Structure (SMILES): CC(C)C[C@H](NC(=O)[C@H](Cc1cccc2ccccc12)NC(=O)OCc1ccccc1)C(=O)N[C@H](C=O)CNC(=O)N1CCC1
- CC50 ([1]; vero): > 100 µM
- CC50 [2]: > 100 µM
- CC50 (CCRF-CEM): 43.6 µM
- EC50 (Human coronavirus OC43): 18 µM
- EC90 (Human coronavirus OC43): 84 µM
- EC50 (SARS-CoV-2 [3]): > 10 µM
- EC90 (SARS-CoV-2 [3]): > 10 µM
- CC50 (Huh-7): 43.6 µM
